# In publication PMC9136103 (The Journal of Biological Chemistry, 2022):
# Assays:
# [1] = molecular target: T1, human ornithine aminotransferase (hOAT) (Homo sapiens, UniProt P04181); assay: crystal structure by soaking (~[…] Å); stopped-flow kinetics Kd; assay type: biochemical
# T1 construct: gene OAT; t-hOAT expressed as MBP fusion, MBP tag removed
# T1 sequence (P04181 26-439 limits assumed): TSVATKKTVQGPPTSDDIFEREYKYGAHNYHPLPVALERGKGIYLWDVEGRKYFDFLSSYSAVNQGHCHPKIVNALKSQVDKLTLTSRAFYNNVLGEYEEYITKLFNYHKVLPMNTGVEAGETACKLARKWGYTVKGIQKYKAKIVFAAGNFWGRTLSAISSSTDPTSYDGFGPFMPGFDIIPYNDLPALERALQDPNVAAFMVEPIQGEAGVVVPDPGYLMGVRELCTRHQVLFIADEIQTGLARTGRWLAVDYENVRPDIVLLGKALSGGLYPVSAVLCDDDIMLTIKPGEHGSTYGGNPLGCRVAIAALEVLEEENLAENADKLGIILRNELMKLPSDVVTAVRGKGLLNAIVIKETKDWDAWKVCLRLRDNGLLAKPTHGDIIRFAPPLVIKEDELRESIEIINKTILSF
# [2] = molecular target: T1, human ornithine aminotransferase (hOAT); assay: stopped-flow transient-state kinetics, purified enzyme (Kd not determined); assay type: biochemical
# [3] = molecular target: T1, human ornithine aminotransferase (hOAT); assay: crystal structure by soaking (~[…] Å); UV-Vis titration Kd; assay type: binding
# [4] = molecular target: T1, human ornithine aminotransferase (hOAT); assay: stopped-flow transient-state kinetics, purified enzyme; assay type: biochemical; settings: read-out: Dissociation constant (Kd)
smiles,measurement,setting,value
"NCCCCC(=O)O [AVA, 5-aminovaleric acid]",Kd,[1],735 ± 78 µM
"NCC[C@H](N)C(=O)O [DABA, L-2,4-diaminobutyric acid]",klim/Kd,[2],0.249 ± 0.006 M⁻¹ s⁻¹
"NCCCC(=O)O [GABA, γ-aminobutyric acid]",Kd,[3],110 ± 15 µM
"NCCC[C@H](N)C(=O)O [L-Orn, L-ornithine]",Kd,[4],4700 ± 290 µM
